Values quoted from earlier work in patent publication US20020150615A1, “Injectable pharmaceutical composition comprising microdroplets of a camptothecin” (priority 2001, published 2002).

Assays:
[1] = biological target: human serum albumin (HSA) (Homo sapiens, UniProt P02768); conditions: PBS at pH 7.4
[2] = human whole blood

Sequence of human serum albumin (HSA) (P02768 25-609): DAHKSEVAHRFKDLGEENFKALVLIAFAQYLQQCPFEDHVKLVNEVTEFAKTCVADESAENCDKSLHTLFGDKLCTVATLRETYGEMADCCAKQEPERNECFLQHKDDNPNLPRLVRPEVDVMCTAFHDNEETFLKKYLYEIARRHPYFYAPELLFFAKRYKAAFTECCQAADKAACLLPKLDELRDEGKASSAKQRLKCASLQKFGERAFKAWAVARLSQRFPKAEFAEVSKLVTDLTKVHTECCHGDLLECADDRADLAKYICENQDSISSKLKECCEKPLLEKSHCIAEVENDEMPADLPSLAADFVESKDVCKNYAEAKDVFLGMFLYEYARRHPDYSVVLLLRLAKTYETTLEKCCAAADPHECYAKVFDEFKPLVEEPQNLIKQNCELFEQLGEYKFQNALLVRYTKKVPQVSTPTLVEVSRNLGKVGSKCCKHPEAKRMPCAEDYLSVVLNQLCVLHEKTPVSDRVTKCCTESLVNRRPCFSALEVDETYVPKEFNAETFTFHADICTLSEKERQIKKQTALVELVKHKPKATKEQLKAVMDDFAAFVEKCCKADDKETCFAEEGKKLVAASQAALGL

CC[C@@]1(O)C(=O)OCc2c1cc1n(c2=O)Cc2cc3ccccc3nc2-1 [camptothecin, 20(S)-camptothecin]
affinity of the carboxylate form relative to the α-hydroxy lactone form [1]: 150 fold
half-life of lactone ring opening [2]: 22 min
